Test results published in patent US10052330B2, “Substituted pyrido[3,4-b]pyrazines as Syk inhibitors” (HUTCHISON MEDIPHARMA LIMITED, priority 2011, dated 2018).
Read-outs that look alike come from different tables or passages of the source.

Legend:
Syk kinase = Syk kinase (Homo sapiens, UniProt P43405); experiment: Syk kinase enzymatic assay (Kit-Tyr 2 Peptide); type: biochemical
RBL-2H3 cells = experiment: IgE-induced Beta-hexosaminidase secretion in RBL-2H3 cells; type: cell-based; conditions: Rattus norvegicus
[1] = 8 concentrations, 1 μM down to 0.0003 μM, upper bound of each range is 'less than', read-out: IC50: Enzymatic Activity (Syk kinase)
[2] = RBL-2H3, RBL-2H3 cells sensitized with SPE-7, stimulated with DNP-BSA, upper bound of each range is 'less than', read-out: IC50, IgE-induced Beta-hexosaminidase secretion

IC50 (Syk kinase; [1])	SMILES	IC50 (RBL-2H3 cells; [2])	IC50 (Syk kinase)	IC50 (RBL-2H3 cells; RBL-2H3, read-out: IC50, IgE-induced Beta-hexosaminidase secretion)
0.001 to 0.1 µM	CC1(C(=O)N2CCN(c3ccc(-c4cc5nccnc5c(NC[C@@H]5CNCCO5)n4)cc3)CC2)CC1 [Compound 402]	0.001 to 0.1 µM	–	–
0.001 to 0.1 µM	O=C(CC1CC1)N1CCN(c2ccc(-c3cc4nccnc4c(NC[C@@H]4CNCCO4)n3)cc2)CC1 [Compound 403]	0.1 to 1 µM	–	–
0.001 to 0.1 µM	CC(C)C(=O)N1CCN(c2ccc(-c3cc4nccnc4c(NC[C@@H]4CNCCO4)n3)cc2)CC1 [Compound 405]	0.001 to 0.1 µM	–	–
0.001 to 0.1 µM	C[C@@H](O)C(=O)N1CCN(c2ccc(-c3cc4nccnc4c(NC[C@@H]4CNCCO4)n3)cc2)CC1 [Compound 406]	0.1 to 1 µM	–	–
0.001 to 0.1 µM	O=C(C(F)F)N1CCN(c2ccc(-c3cc4nccnc4c(NC[C@@H]4CNCCO4)n3)cc2)CC1 [Compound 407]	0.001 to 0.1 µM	–	–
0.001 to 0.1 µM	C[C@H](O)C(=O)N1CCN(c2ccc(-c3cc4nccnc4c(NC[C@@H]4CNCCO4)n3)cc2)CC1 [Compound 408]	0.1 to 1 µM	–	–
0.001 to 0.1 µM	N#CCC(=O)N1CCN(c2ccc(-c3cc4nccnc4c(NC[C@@H]4CNCCO4)n3)cc2)CC1 [Compound 409]	0.1 to 1 µM	–	–
0.001 to 0.1 µM	O=C(CCO)N1CCN(c2ccc(-c3cc4nccnc4c(NC[C@@H]4CNCCO4)n3)cc2)CC1 [Compound 410]	0.1 to 1 µM	–	–
0.001 to 0.1 µM	O=C(CC(F)(F)F)N1CCN(c2ccc(-c3cc4nccnc4c(NC[C@@H]4CNCCO4)n3)cc2)CC1 [Compound 411]	0.001 to 0.1 µM	–	–
0.001 to 0.1 µM	CC(C)(O)C(=O)N1CCN(c2ccc(-c3cc4nccnc4c(NC[C@@H]4CNCCO4)n3)cc2)CC1 [Compound 412]	0.1 to 1 µM	–	–
0.001 to 0.1 µM	O=C(C1CCC1)N1CCN(c2ccc(-c3cc4nccnc4c(NC[C@@H]4CNCCO4)n3)cc2)CC1 [Compound 413]	0.001 to 0.1 µM	–	–
0.001 to 0.1 µM	CCCC(=O)N1CCN(c2ccc(-c3cc4nccnc4c(NC[C@@H]4CNCCO4)n3)cc2)CC1 [Compound 426]	0.001 to 0.1 µM	–	–
0.001 to 0.1 µM	O=C(C(F)F)N1CCN(c2ccc(-c3cc4nccnc4c(NC[C@@H]4CNCCO4)n3)cc2F)CC1 [Compound 427]	0.001 to 0.1 µM	–	–

Continued, compound first:

SMILES	IC50 (Syk kinase; [1])	IC50 (RBL-2H3 cells; [2])	IC50 (Syk kinase)	IC50 (RBL-2H3 cells; RBL-2H3, read-out: IC50, IgE-induced Beta-hexosaminidase secretion)
CN1CCN(c2ccc(-c3cc4nccnc4c(NC[C@H]4CNCCC4(F)F)n3)cc2)CC1 [Compound 373, (R)—N-((4,4-difluoropiperidin-3-yl)methyl)-7-(4-(4-methylpiperazin-1-yl)phenyl)pyrido[4,3-b]pyrazin-5-amine]	0.1 to 1 µM	0.1 to 1 µM	–	–
FC1(F)CCNC[C@H]1CNc1nc(-c2ccc(N3CCOCC3)nc2)cc2nccnc12 [Compound 374, (S)—N-((4,4-difluoropiperidin-3-yl)methyl)-7-(6-morpholinopyridin-3-yl)pyrido[4,3-b]pyrazin-5-amine]	0.001 to 0.1 µM	0.001 to 0.1 µM	–	–
F[C@@]1(CNc2nc(-c3ccc(N4CCOCC4)cc3)cc3nccnc23)CCCNC1 [Compound 376, (S)—N-((3-fluoropiperidin-3-yl)methyl)-7-(4-morpholinophenyl)pyrido[4,3-b]pyrazin-5-amine]	0.001 to 0.1 µM	0.001 to 0.1 µM	–	–
CC(=O)N1CCN(c2ccc(-c3cc4nccnc4c(NC[C@@H]4CNCCC4(F)F)n3)cc2)CC1 [Compound 384, (S)-1-(4-(4-(5-((4,4-difluoropiperidin-3-yl)methylamino)pyrido[4,3-b]pyrazin-7-yl)phenyl)piperazin-1-yl)ethanone]	0.001 to 0.1 µM	0.001 to 0.1 µM	–	–
CC(=O)N1CCN(c2ccc(-c3cc4nccnc4c(NC[C@H]4CNCCC4(F)F)n3)cc2)CC1 [Compound 385, (R)-1-(4-(4-(5-((4,4-difluoropiperidin-3-yl)methylamino)pyrido[4,3-b]pyrazin-7-yl)phenyl)piperazin-1-yl)ethanone]	0.001 to 0.1 µM	0.001 to 0.1 µM	–	–
C[C@H]1CN(c2ccc(-c3cc4nccnc4c(NC[C@@H]4CNCCO4)n3)cc2F)CCO1 [Compound 386, 7-(3-fluoro-4-((S)-2-methylmorpholino)phenyl)-N—((S)-morpholin-2-ylmethyl)pyrido[4,3-b]pyrazin-5-amine]	0.001 to 0.1 µM	0.1 to 1 µM	–	–
C[C@@H]1CN(c2ccc(-c3cc4nccnc4c(NC[C@@H]4CNCCO4)n3)cc2F)CCO1 [Compound 387, 7-(3-fluoro-4-((R)-2-methylmorpholino)phenyl)-N—((S)-morpholin-2-ylmethyl)pyrido[4,3-b]pyrazin-5-amine]	0.001 to 0.1 µM	0.001 to 0.1 µM	–	–
CNC(=O)COc1ccc(-c2cc3nccnc3c(NC[C@@H]3CNCCC3(F)F)n2)cc1 [Compound 388, (S)-2-(4-(5-((4,4-difluoropiperidin-3-yl)methylamino)pyrido[4,3-b]pyrazin-7-yl)phenoxy)-N-methylacetamide]	0.001 to 0.1 µM	0.001 to 0.1 µM	–	–
CNC(=O)COc1ccc(-c2cc3nccnc3c(NC[C@H]3CNCCC3(F)F)n2)cc1 [Compound 389, (R)-2-(4-(5-((4,4-difluoropiperidin-3-yl)methylamino)pyrido[4,3-b]pyrazin-7-yl)phenoxy)-N-methylacetamide]	0.001 to 0.1 µM	0.001 to 0.1 µM	–	–
CS(=O)(=O)c1ccc(-c2cc3nccnc3c(NC[C@@H]3CNCCC3(F)F)n2)cc1 [Compound 390, (S)—N-((4,4-difluoropiperidin-3-yl)methyl)-7-(4-(methylsulfonyl)phenyl)pyrido[4,3-b]pyrazin-5-amine]	0.001 to 0.1 µM	0.001 to 0.1 µM	–	–
CCn1cc(-c2cc3nccnc3c(NC[C@@H]3CNCCC3(F)F)n2)cn1 [Compound 392, (S)—N-((4,4-difluoropiperidin-3-yl)methyl)-7-(1-ethyl-1H-pyrazol-4-yl)pyrido[4,3-b]pyrazin-5-amine]	0.001 to 0.1 µM	0.001 to 0.1 µM	–	–
CCn1cc(-c2cc3nccnc3c(NC[C@H]3CNCCC3(F)F)n2)cn1 [Compound 393, (R)—N-((4,4-difluoropiperidin-3-yl)methyl)-7-(1-ethyl-1H-pyrazol-4-yl)pyrido[4,3-b]pyrazin-5-amine]	0.1 to 1 µM	0.001 to 0.1 µM	–	–
CN(c1ccc(-c2cc3nccnc3c(NC[C@@H]3CNCCC3(F)F)n2)cc1)S(C)(=O)=O [Compound 394, (S)—N-(4-(5-((4,4-difluoropiperidin-3-yl)methylamino)pyrido[4,3-b]pyrazin-7-yl)phenyl)-N-methylmethanesulfonamide]	0.001 to 0.1 µM	0.001 to 0.1 µM	–	–
CN(c1ccc(-c2cc3nccnc3c(NC[C@H]3CNCCC3(F)F)n2)cc1)S(C)(=O)=O [Compound 395, (R)—N-(4-(5-((4,4-difluoropiperidin-3-yl)methylamino)pyrido[4,3-b]pyrazin-7-yl)phenyl)-N-methylmethanesulfonamide]	0.1 to 1 µM	0.001 to 0.1 µM	–	–
C[C@H]1CN(c2ccc(-c3cc4nccnc4c(NC[C@H]4CNCCC4(F)F)n3)cc2)CCO1 [Compound 397, (R)—N-((4,4-difluoropiperidin-3-yl)methyl)-7-(4-((S)-2-methylmorpholino)phenyl)pyrido[4,3-b]pyrazin-5-amine]	0.001 to 0.1 µM	0.001 to 0.1 µM	–	–
FC1(F)CCNC[C@H]1CNc1nc(-c2cnn(C3CCOCC3)c2)cc2nccnc12 [Compound 398, (S)—N-((4,4-difluoropiperidin-3-yl)methyl)-7-(1-(tetrahydro-2H-pyran-4-yl)-1H-pyrazol-4-yl)pyrido[4,3-b]pyrazin-5-amine]	0.001 to 0.1 µM	0.001 to 0.1 µM	–	–
FC1(F)CCNC[C@@H]1CNc1nc(-c2cnn(C3CCOCC3)c2)cc2nccnc12 [Compound 399, (R)—N-((4,4-difluoropiperidin-3-yl)methyl)-7-(1-(tetrahydro-2H-pyran-4-yl)-1H-pyrazol-4-yl)pyrido[4,3-b]pyrazin-5-amine]	0.001 to 0.1 µM	0.001 to 0.1 µM	–	–
O=S(=O)(C1CC1)N1CCN(c2ccc(-c3cc4nccnc4c(NC[C@@H]4CNCCO4)n3)cc2)CC1 [Compound 400, (S)-7-(4-(4-(cyclopropylsulfonyl)piperazin-1-yl)phenyl)-N-(morpholin-2-ylmethyl)pyrido[4,3-b]pyrazin-5-amine]	0.001 to 0.1 µM	0.001 to 0.1 µM	–	–
CC(C)S(=O)(=O)N1CCN(c2ccc(-c3cc4nccnc4c(NC[C@@H]4CNCCO4)n3)cc2)CC1 [Compound 401]	0.001 to 0.1 µM	0.1 to 1 µM	–	–
CC1(C(=O)N2CCN(c3ccc(-c4cc5nccnc5c(NC[C@@H]5CNCCO5)n4)cc3)CC2)COC1 [Compound 404]	0.001 to 0.1 µM	0.1 to 1 µM	–	–
O=C(C1CCCC1)N1CCN(c2ccc(-c3cc4nccnc4c(NC[C@@H]4CNCCO4)n3)cc2)CC1 [Compound 414]	0.001 to 0.1 µM	0.001 to 0.1 µM	–	–
O=C([C@@H]1CCCO1)N1CCN(c2ccc(-c3cc4nccnc4c(NC[C@@H]4CNCCO4)n3)cc2)CC1 [Compound 415]	0.001 to 0.1 µM	0.001 to 0.1 µM	–	–
O=C([C@H]1CCCO1)N1CCN(c2ccc(-c3cc4nccnc4c(NC[C@@H]4CNCCO4)n3)cc2)CC1 [Compound 416]	0.001 to 0.1 µM	0.001 to 0.1 µM	–	–
O=C([C@@H]1CCOC1)N1CCN(c2ccc(-c3cc4nccnc4c(NC[C@@H]4CNCCO4)n3)cc2)CC1 [Compound 417]	0.001 to 0.1 µM	0.1 to 1 µM	–	–
CC(=O)N1CCC(c2ccc(-c3cc4nccnc4c(NC[C@@H]4CNCCO4)n3)cc2)CC1 [Compound 418]	0.001 to 0.1 µM	0.001 to 0.1 µM	–	–
CC(=O)N(C)C1CCN(c2ccc(-c3cc4nccnc4c(NC[C@@H]4CNCCO4)n3)cc2)CC1 [Compound 420]	0.001 to 0.1 µM	0.1 to 1 µM	–	–
O=C(c1ccoc1)N1CCN(c2ccc(-c3cc4nccnc4c(NCC4CNCCO4)n3)cc2)CC1 (centres unmarked) [Compound 421]	0.001 to 0.1 µM	0.001 to 0.1 µM	–	–
N#CC1(C(=O)N2CCN(c3ccc(-c4cc5nccnc5c(NCC5CNCCO5)n4)cc3)CC2)CC1 (centres unmarked) [Compound 423]	0.001 to 0.1 µM	0.001 to 0.1 µM	–	–
O=C(CF)N1CCN(c2ccc(-c3cc4nccnc4c(NCC4CNCCO4)n3)cc2)CC1 (centres unmarked) [Compound 424]	–	–	0.001 to 0.1 µM	0.001 to 0.1 µM
O=C(c1ccco1)N1CCN(c2ccc(-c3cc4nccnc4c(NCC4CNCCO4)n3)cc2)CC1 (centres unmarked) [Compound 425]	0.001 to 0.1 µM	0.001 to 0.1 µM	–	–
